Among the data in ChEMBL document CHEMBL5233274, “Current Landscape and Future Perspective of Oxazolidinone Scaffolds Containing Antibacterial Drugs” (J Med Chem, 2021) are zone of inhibition and IC50 values, retold here.

≈ marks a conversion by molar mass, not a printed value.

The test system of one experiment is Escherichia coli. The experiment in a line: Antimicrobial activity against Escherichia coli assessed as inhibition zone at 200 ug/ml incubated for 24 hrs by disk diffusion method. As to conditions: read-out: IZ. The class given is functional. A general note: Agar diffusion results depend on both activity and mobility in agar.
For the next experiment, the system named is Fusarium oxysporum. As to the kind of experiment: Antimicrobial activity against Fusarium oxysporum assessed as inhibition zone at 200 ug/ml incubated for 24 hrs by disk diffusion method. The class given is functional. As to conditions: read-out: IZ.
The test system of a further experiment is MCF7. The experiment in a line: Cytotoxicity against human MCF7 cells assessed as reduction in cell viability by tryphan blue exclusion dye method. Type of experiment: functional, cell-based.
Another experiment has as its system Bacillus subtilis. As to the kind of experiment: Antimicrobial activity against Bacillus subtilis assessed as inhibition zone at 200 ug/ml incubated for 24 hrs by disk diffusion method. Type of experiment: functional. As to conditions: read-out: IZ.
For another experiment, the system named is HT-29. As to the kind of experiment: Cytotoxicity against human HT-29 cells assessed as reduction in cell viability by tryphan blue exclusion dye method. The class given is functional, cell-based.

Consider `O=C1NC2(CO1)O/C(=C\c1ccc(Cl)cc1)C(=O)N2CCCNc1ccnc2cc(Cl)ccc12` (stereo not given), for which the zone of inhibition at 200 µg/mL in the experiment with Escherichia coli was found to be 13 mm; in the experiment on Fusarium oxysporum, 10 mm; in the experiment with Bacillus subtilis, 14 mm. Further, the values for the IC50 in the experiment with MCF7 and with HT-29 were 16.1 µg/mL (≈ 32.2 µM) and 32.4 µg/mL (≈ 64.9 µM), respectively.
